Values quoted from earlier work as cited in patent publication US7001904B1, “Guanidine derivatives quinazoline and quinoline for use in the treatment of autoimmune diseases” (AstraZeneca AB, priority 2000, dated 2006).

Biological target: EGF RTK (Homo sapiens, UniProt P00533)
Conditions: Bioorganic & Medicinal Chemistry Letters, 1997, 7, 2723–2728

Chain of EGF RTK (P00533 25-1210): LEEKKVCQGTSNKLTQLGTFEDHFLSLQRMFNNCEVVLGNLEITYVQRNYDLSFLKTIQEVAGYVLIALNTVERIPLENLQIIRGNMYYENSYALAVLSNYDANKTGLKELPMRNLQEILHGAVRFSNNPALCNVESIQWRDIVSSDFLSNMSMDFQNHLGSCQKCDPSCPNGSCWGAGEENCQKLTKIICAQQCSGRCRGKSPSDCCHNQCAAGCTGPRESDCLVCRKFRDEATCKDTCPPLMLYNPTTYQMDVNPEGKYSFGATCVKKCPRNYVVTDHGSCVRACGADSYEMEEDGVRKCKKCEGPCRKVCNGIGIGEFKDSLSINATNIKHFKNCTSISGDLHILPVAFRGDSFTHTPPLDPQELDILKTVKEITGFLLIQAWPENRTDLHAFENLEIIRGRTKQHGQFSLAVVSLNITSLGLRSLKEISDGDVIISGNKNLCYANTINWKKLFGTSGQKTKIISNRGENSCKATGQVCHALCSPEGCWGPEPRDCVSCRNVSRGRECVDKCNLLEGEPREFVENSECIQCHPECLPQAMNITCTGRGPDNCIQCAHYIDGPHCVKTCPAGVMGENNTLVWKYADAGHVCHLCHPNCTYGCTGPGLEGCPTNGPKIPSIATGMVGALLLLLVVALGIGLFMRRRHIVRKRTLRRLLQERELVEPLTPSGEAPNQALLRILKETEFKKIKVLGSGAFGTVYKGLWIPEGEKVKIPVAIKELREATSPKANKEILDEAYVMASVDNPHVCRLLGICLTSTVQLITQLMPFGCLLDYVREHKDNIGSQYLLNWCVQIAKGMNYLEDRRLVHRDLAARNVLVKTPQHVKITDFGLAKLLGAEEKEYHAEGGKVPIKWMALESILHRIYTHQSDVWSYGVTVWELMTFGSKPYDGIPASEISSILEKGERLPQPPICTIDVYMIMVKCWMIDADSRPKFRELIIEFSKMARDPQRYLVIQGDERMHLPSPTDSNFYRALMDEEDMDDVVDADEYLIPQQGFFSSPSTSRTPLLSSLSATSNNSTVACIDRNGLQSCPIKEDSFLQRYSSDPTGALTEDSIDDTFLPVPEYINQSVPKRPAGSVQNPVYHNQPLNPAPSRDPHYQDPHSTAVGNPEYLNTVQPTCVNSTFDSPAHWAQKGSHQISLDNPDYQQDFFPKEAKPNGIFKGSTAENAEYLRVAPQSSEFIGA

- EGF RTK inhibition: inactive
Compound: COc1cc2ncnc(NC(=O)Nc3ccccc3)c2cc1OC [1-(6,7-dimethoxyquinazolin-4-yl)-3-phenylurea]
